The record followed here is patent US12109218B2, “Compositions of grapiprant and methods for using the same” (ARATANA THERAPEUTICS, INC., priority 2014, dated 2024).

The assay has as its system meniscal release model of osteoarthritis. Description: Meniscal release model of osteoarthritis in dogs (Example 8). Format: in vivo. As to conditions: 5 mg/kg daily. The method, then: Twenty intact adult female hounds underwent surgical meniscal release of the right stifle and were maintained for at least 8 weeks to allow osteoarthritis to develop. […] Animals were randomized into three groups: negative control (n=6), positive control (n=7) treated with 5 mg/kg firocoxib daily, and grapiprant (n=7) dosed once daily at 30 mg/kg. Dosing was based on baseline bodyweight.
Baseline physical exams, bodyweights, hematology, serum chemistry and urinalysis were obtained on study Day −1 and repeated on Day 13. Orthopedic assessments were conducted on Day −1, Day 2, Day 6, and Day 13, including a kinetics assessment using the GAITRite system to determine left hindlimb: right hindlimb ratios for peak pressure, stride length, step length, and stance time, a 5-point scale lameness evaluation, VAS assessments of right hindlimb function, right stifle pain and effusion, and comfortable range of motion measurements of both stifles using a goniometer.

SMILES strings stand for the structures.

As for `CC1(C)OC(=O)C(OCC2CC2)=C1c1ccc(S(C)(=O)=O)cc1` [firocoxib, reference compound], the “peak pressure ratios, lameness and function scores compared to baseline” value is “improved statistically significant mean peak pressure ratios on Day 13 and in mean lameness and mean function scores on Day 6 and 13 compared to baseline”.
